Tested on: Mtb-infected mouse lungs
Test: Genome-wide lung transcriptome (microarray, IPA network/GO analysis) of Mtb-infected mice
Assay type: in vivo
[1] = Canonical IFN signaling pathway

CCOc1cc([C@@H](CS(C)(=O)=O)N2Cc3cccc(NC(=O)C4CC4)c3C2=O)ccc1OC [CC-11050, N-[2-[(1S)-1-(3-ethoxy-4-methoxyphenyl)-2-(methylsulfonyl)ethyl]-2,3-dihydro-3-oxo-1H-isoindol-4-yl]-(9Cl) cyclopropanecarboxamide]
Number of SDEGs affected by more than 1.5-folds (14 days of treatment (29 upregulated and 18 downregulated)): 47
Number of SDEGs relative to infected untreated animals (14 days of treatment, FDR 5%): 1,277
BAK expression [1]: 0
BAX expression [1]: 0
DRIP150 expression [1]: 0
IFI35 expression [1]: 0
IFIT3 expression [1]: 0
IFNAR2 expression [1]: 0
IFNG expression [1]: 0
IFNGRb expression [1]: -1.115
IRF1 expression [1]: 0
IRF9 expression [1]: 0
JAK2 expression [1]: 0
OAS1 expression [1]: 0
PIAS1 expression [1]: 0
PSMB8 expression [1]: 0
SOCS1 expression [1]: 0
STAT1 expression [1]: 0
STAT2 expression [1]: 0
TAP1 expression [1]: 0
TC-PTP expression [1]: 0
TYK2 expression [1]: 0
ACTB expression (IL17 interaction network): 0
CCL2 expression (IL17 interaction network): 0
CCL5 expression (IL17 interaction network): 0
CCL13 expression (IL17 interaction network): 0
CSF2 expression (IL17 interaction network): 0
EDIL3 expression (IL17 interaction network): 0
ENTPD1 expression (IL17 interaction network): 1.149
HMGB1 expression (IL17 interaction network): -1.135
HSPB8 expression (IL17 interaction network): 1.322
IFNG expression (IL17 interaction network): 0
IL1B expression (IL17 interaction network): 0
IL6 expression (IL17 interaction network): 0
IL10 expression (IL17 interaction network): 0
IL16 expression (IL17 interaction network): 0
IL17A expression (IL17 interaction network): 0
IL17D expression (IL17 interaction network): 0
IL17F expression (IL17 interaction network): -1.184
LTA expression (IL17 interaction network): 0
MMP9 expression (IL17 interaction network): 0
NOS2 expression (IL17 interaction network): 0
PTGS2 expression (IL17 interaction network): 0
RGS13 expression (IL17 interaction network): 0
SELE expression (IL17 interaction network): 0
STAT3 expression (IL17 interaction network): 0
TIMP1 expression (IL17 interaction network): 0
TLR4 expression (IL17 interaction network): 0
TNF expression (IL17 interaction network): 0
TRAF3IP2 expression (IL17 interaction network): 0
TRAF6 expression (IL17 interaction network): 0
VWF expression (IL17 interaction network): 0
ABL1 expression (Lung inflammation network): 0
ACO2 expression (Lung inflammation network): 0
ACTB expression (Lung inflammation network): 0
ADORA2A expression (Lung inflammation network): 0
AGER expression (Lung inflammation network): 0
AGTR1 expression (Lung inflammation network): 0
AHR expression (Lung inflammation network): 0
ALDH2 expression (Lung inflammation network): 0
ANGPT1 expression (Lung inflammation network): 0
ANXA3 expression (Lung inflammation network): 0
ATF3 expression (Lung inflammation network): 0
BAX expression (Lung inflammation network): 0
BID expression (Lung inflammation network): 0
BSG expression (Lung inflammation network): 0
CASP1 expression (Lung inflammation network): 0
CAV1 expression (Lung inflammation network): 0
CBL expression (Lung inflammation network): 0
CCL2 expression (Lung inflammation network): 0
CCL5 expression (Lung inflammation network): 0
CCR4 expression (Lung inflammation network): 0
CCR5 expression (Lung inflammation network): 0
CD4 expression (Lung inflammation network): 0
CD14 expression (Lung inflammation network): 0
CD40LG expression (Lung inflammation network): 0
CD44 expression (Lung inflammation network): 0
CD86 expression (Lung inflammation network): 0
CD200 expression (Lung inflammation network): 0
CIITA expression (Lung inflammation network): 0
CSF2RB expression (Lung inflammation network): 0
CSF2 expression (Lung inflammation network): 0
CSK expression (Lung inflammation network): 0
CTLA4 expression (Lung inflammation network): 0
CTSS expression (Lung inflammation network): 0
CXCR3 expression (Lung inflammation network): 0
CYBB expression (Lung inflammation network): 0
CYLD expression (Lung inflammation network): 0
Ccl6 expression (Lung inflammation network): 0
Cd59a expression (Lung inflammation network): 0
Cxcl15 expression (Lung inflammation network): 0
E2F3 expression (Lung inflammation network): -1.343
EDNRA expression (Lung inflammation network): 0
EDNRB expression (Lung inflammation network): 1.235
EIF2C2 expression (Lung inflammation network): 0
ENTPD1 expression (Lung inflammation network): 1.149
F2RL1 expression (Lung inflammation network): 0
F10 expression (Lung inflammation network): 0
FASLG expression (Lung inflammation network): 0
FBN1 expression (Lung inflammation network): 0
FCGR2B expression (Lung inflammation network): 0
FCGRT expression (Lung inflammation network): 1.165
FOXO3 expression (Lung inflammation network): 1.609
HMGCR expression (Lung inflammation network): 0
HRH1 expression (Lung inflammation network): 0
HTT expression (Lung inflammation network): 0
IFNG expression (Lung inflammation network): 0
IFNGR2 expression (Lung inflammation network): -1.115
IKBKB expression (Lung inflammation network): 0
IKBKE expression (Lung inflammation network): 0
IL1B expression (Lung inflammation network): 0
IL1R1 expression (Lung inflammation network): 0
IL2RG expression (Lung inflammation network): 0
IL4R expression (Lung inflammation network): 0
IL6 expression (Lung inflammation network): 0
IL10 expression (Lung inflammation network): 0
IL12B expression (Lung inflammation network): 0
IL15RA expression (Lung inflammation network): 0
IL16 expression (Lung inflammation network): 0
IL17RB expression (Lung inflammation network): 0
IL18 expression (Lung inflammation network): 0
ITGB6 expression (Lung inflammation network): 0
ITGBL1 expression (Lung inflammation network): 0
ITK expression (Lung inflammation network): 0
KIT expression (Lung inflammation network): 0
LAT expression (Lung inflammation network): 0
LCP2 expression (Lung inflammation network): 0
LGALS1 expression (Lung inflammation network): 0
LIF expression (Lung inflammation network): -1.187
LTA expression (Lung inflammation network): 0
MAP3K14 expression (Lung inflammation network): 0
MARK2 expression (Lung inflammation network): 0
MGAT5 expression (Lung inflammation network): 0
MKL2 expression (Lung inflammation network): 0
MMP9 expression (Lung inflammation network): 0
MMP14 expression (Lung inflammation network): 0
NCF1 expression (Lung inflammation network): 0
NEO1 expression (Lung inflammation network): 0
NFATC2 expression (Lung inflammation network): 0
NFKB1 expression (Lung inflammation network): 0
NLRP3 expression (Lung inflammation network): 0
NOD1 expression (Lung inflammation network): 0
NOD2 expression (Lung inflammation network): 0
NOS2 expression (Lung inflammation network): 0
NQO1 expression (Lung inflammation network): 0
NQO2 expression (Lung inflammation network): 0
NT5E expression (Lung inflammation network): 0
PDE5A expression (Lung inflammation network): 0
PDGFRA expression (Lung inflammation network): 0
PDGFRB expression (Lung inflammation network): 0
PLA2G4A expression (Lung inflammation network): 0
PLAU expression (Lung inflammation network): 0
PTAFR expression (Lung inflammation network): 0
PTEN expression (Lung inflammation network): 1.12
PTGS2 expression (Lung inflammation network): 0
PTPN6 expression (Lung inflammation network): 0
PTPRC expression (Lung inflammation network): 0
RELB expression (Lung inflammation network): 0
S100A4 expression (Lung inflammation network): 0
SELE expression (Lung inflammation network): 0
SFTPA1 expression (Lung inflammation network): 1.126
SFTPD expression (Lung inflammation network): 0
SLC6A2 expression (Lung inflammation network): 0
SOCS1 expression (Lung inflammation network): 0
SPI1 expression (Lung inflammation network): 0
SPP1 expression (Lung inflammation network): 0
STAT1 expression (Lung inflammation network): 0
TFPI expression (Lung inflammation network): 1.241
